Experimental data from patent US20180273531A1, “PYRIMIDINE COMPOUND AND MEDICAL USE THEREOF” (Japan Tobacco Inc., priority 2004, published 2018).

What follows are compounds tested on colorectal cancer cell line HT-29 cells (assay: Growth inhibitory effect against cancer cell lines (3H-thymidine uptake), HT-29). Conditions: Homo sapiens, HT-29, inhibition of 3H-thymidine uptake; test substance 18 hrs, then 3H-thymidine 6 hrs; triplicate.
Format: cell-based
Description: Renal cancer cell line ACHN cell or colorectal cancer cell line HT-29 cells were cultured in a 96 well plate at 1.0×10^4 cells/90 μL/well for 24 hrs, then a test substance dissolved in DMSO (dimethyl sulfoxide) was added. After 18 hrs, ^3H-thymidine (0.25 μCi/well) was added and the cells were cultured for 6 hrs. Using a cell harvester, the cells were recovered on a UniFilter-96 GF/B glass filter and the ^3H radioactivity uptaken by the cells was measured by TopCount (Packard). As a control, DMSO was used and the activity of the test substance was expressed in the concentration (IC50) necessary for inhibiting ^3H radioactivity uptaken by the cell to 50% of that of the control group. The measurements were made in triplicate.

Compound | IC50 [nM]
COc1ccc(Nc2cc(=O)n(C)c3c2c(=O)n(C2CC2)c(=O)n3-c2ccccc2)cc1 [Example 1-129] | 100 to 1000
C=CCn1c(=O)c2c(Nc3ccc(N(C)C)cc3)cc(=O)n(C)c2n(-c2ccccc2)c1=O [Example 1-140] | 100 to 1000
COc1ccccc1-n1c(=O)n(C2CC2)c(=O)c2c(Nc3ccc(Br)cc3)cc(=O)n(C)c21 [Example 1-159] | 100 to 1000
CCn1c(=O)c2c(Nc3ccc(Br)cc3F)cc(=O)n(C)c2n(-c2ccccc2)c1=O [Example 1-164] | 10 to 100
Cn1c(=O)cc(Nc2ccc(Cl)cc2F)c2c(=O)n(C3CC3)c(=O)n(-c3ccccc3)c21 [Example 1-171] | 10 to 100
COc1cc(Br)ccc1Nc1cc(=O)n(C)c2c1c(=O)n(C1CC1)c(=O)n2-c1ccccc1 [Example 1-189] | 100 to 1000
COc1cccc(-n2c(=O)n(C3CC3)c(=O)c3c(Nc4ccc(Br)cc4)cc(=O)n(C)c32)c1 [Example 1-190] | 100 to 1000
CN1CCN(c2cccc(-n3c(=O)n(C4CC4)c(=O)c4c(Nc5ccc(Br)cc5F)cc(=O)n(C)c43)c2)CC1 [Example 1-206] | 100 to 1000
COc1ccc(Nc2cc(=O)n(C)c3c2c(=O)n(C2CC2)c(=O)n3-c2ccccc2)c(Br)c1 [Example 1-211] | 100 to 1000
Cn1c(=O)cc(Nc2ccc(Br)cc2F)c2c(=O)n(C3CC3)c(=O)n(-c3cccc(N4CCCC4)c3)c21 [Example 1-215] | 100 to 1000
Cn1c(=O)cc(Nc2ccc(Br)cc2F)c2c(=O)n(C3CC3)c(=O)n(-c3cccc(N4CCCCC4)c3)c21 [Example 1-216] | 100 to 1000
CCN(C)c1ccc(Nc2cc(=O)n(C)c3c2c(=O)n(C2CC2)c(=O)n3-c2ccccc2)c(F)c1 [Example 1-217] | 100 to 1000
CC(C)c1ccc(Nc2cc(=O)n(C)c3c2c(=O)n(C2CC2)c(=O)n3-c2ccccc2)cc1 [Example 1-229] | 100 to 1000
CCc1ccc(Nc2cc(=O)n(C)c3c2c(=O)n(C2CC2)c(=O)n3-c2ccccc2)cc1 [Example 1-230] | 100 to 1000
Cn1c(=O)cc(Nc2ccc(Br)cc2F)c2c(=O)n(C3CC3)c(=O)n(-c3cccc(OCCN4CCCC4)c3)c21 [Example 1-233] | 100 to 1000
Cn1c(=O)cc(Nc2ccc(Br)cc2F)c2c(=O)n(C3CC3)c(=O)n(-c3cccc(OCCN4CCCCC4)c3)c21 [Example 1-234] | 100 to 1000
CN1CCN(CCCOc2cccc(-n3c(=O)n(C4CC4)c(=O)c4c(Nc5ccc(Br)cc5F)cc(=O)n(C)c43)c2)CC1 [Example 1-236] | 100 to 1000
CCn1c(=O)c2c(Nc3ccc(Br)cc3F)cc(=O)n(C)c2n(-c2cccnc2)c1=O [Example 1-244] | 100 to 1000
Cn1c(=O)cc(Nc2ccc(Br)cc2F)c2c(=O)n(C3CC3)c(=O)n(-c3cccc(CCCN4CCCCC4)c3)c21 [Example 1-255] | 100 to 1000
CCCc1ccc(Nc2cc(=O)n(C)c3c2c(=O)n(C2CC2)c(=O)n3-c2ccccc2)c(F)c1 [Example 1-258] | 100 to 1000
Cn1c(=O)cc(Nc2ccc(C(F)(F)F)cc2)c2c(=O)n(C3CC3)c(=O)n(-c3ccccc3)c21 [Example 1-273] | 100 to 1000
Cn1c(=O)cc(Nc2ccc(CC(F)F)cc2)c2c(=O)n(C3CC3)c(=O)n(-c3ccccc3)c21 [Example 1-326] | 100 to 1000
Cc1c(=O)n(C)c(Nc2ccc(I)cc2F)c2c(=O)n(CCCO)c(=O)n(-c3cccc(NS(C)(=O)=O)c3)c12 [Example 4-145] | 100 to 1000
Cc1c(=O)n(C)c(Nc2ccc(I)cc2F)c2c(=O)n(CCCO)c(=O)n(-c3ccc4oc(=O)[nH]c4c3)c12 [Example 4-146] | 100 to 1000

The next lines start with the values.

IC50 [nM] | Compound
100 to 1000 | Cn1c(=O)cc(Nc2ccc(Br)cc2F)c2c(=O)n(C3CC3)c(=O)n(-c3cccc(CCC(=O)O)c3)c21 [Example 1-201]
10 to 100 | Cn1c(=O)cc(Nc2ccc(Br)cc2F)c2c(=O)n(C3CC3)c(=O)n(-c3cccc(N4CCCCC4=O)c3)c21 [Example 1-214]
100 to 1000 | Cn1c(=O)cc(Nc2ccc(Br)cc2F)c2c(=O)n(C3CC3)c(=O)n(-c3ccc(S(C)(=O)=O)cc3)c21 [Example 1-225]
10 to 100 | CN(C)CCCOc1cccc(-n2c(=O)n(C3CC3)c(=O)c3c(Nc4ccc(Br)cc4F)cc(=O)n(C)c32)c1 [Example 1-227]
100 to 1000 | CCN(CC)CCOc1cccc(-n2c(=O)n(C3CC3)c(=O)c3c(Nc4ccc(Br)cc4F)cc(=O)n(C)c32)c1 [Example 1-235]
10 to 100 | CN(C)CCCc1cccc(-n2c(=O)n(C3CC3)c(=O)c3c(Nc4ccc(Br)cc4F)cc(=O)n(C)c32)c1 [Example 1-252]
10 to 100 | CN(C)CC(=O)Nc1cccc(-n2c(=O)n(C3CC3)c(=O)c3c(Nc4ccc(Br)cc4F)cc(=O)n(C)c32)c1 [Example 1-277]
10 to 100 | Cn1c(=O)cc(Nc2ccc(Br)cc2F)c2c(=O)n(C3CC3)c(=O)n(-c3cccc(S(N)(=O)=O)c3)c21 [Example 1-288]
10 to 100 | CNC(=O)c1cccc(-n2c(=O)n(C3CC3)c(=O)c3c(Nc4ccc(Br)cc4F)cc(=O)n(C)c32)c1 [Example 1-292]
10 to 100 | Cn1c(=O)cc(Nc2ccc(Br)cc2F)c2c(=O)n(C3CC3)c(=O)n(-c3cccc(NC(=O)CCO)c3)c21 [Example 1-305]
10 to 100 | Cn1c(=O)cc(Nc2ccc(Br)cc2F)c2c(=O)n(C3CC3)c(=O)n(-c3cccc(NS(=O)(=O)CCN)c3)c21 [Example 1-313]
10 to 100 | CN(C)C(=O)Nc1cccc(-n2c(=O)n(C3CC3)c(=O)c3c(Nc4ccc(Br)cc4F)cc(=O)n(C)c32)c1 [Example 1-324]
100 to 1000 | Cn1c(=O)cc(Nc2ccc(Br)cc2F)c2c(=O)n(C3CC3)c(=O)n(-c3cccc(NCCN)c3)c21 [Example 1-334]
100 to 1000 | CC(=O)Nc1ccc(-n2c(=O)n(C3CC3)c(=O)c3c(Nc4ccc(Br)cc4F)n(C)c(=O)c(C)c32)cc1 [Example 4-4]
100 to 1000 | CC(=O)Nc1cccc(-n2c(=O)n(C3CC3)c(=O)c3c(Nc4ccccc4F)n(C)c(=O)c(C)c32)c1 [Example 4-7]
100 to 1000 | CCCCC(=O)NCCC(=O)Nc1cccc(-n2c(=O)n(C3CC3)c(=O)c3c(Nc4ccccc4F)n(C)c(=O)c(C)c32)c1 [Example 4-13]
100 to 1000 | CC(=O)Nc1cccc(-n2c(=O)n(C3CC3)c(=O)c3c(Nc4ccc(C5CCCC5)cc4F)n(C)c(=O)c(C)c32)c1 [Example 4-57]
10 to 100 | COc1ccc(-n2c(=O)n(C3CC3)c(=O)c3c(Nc4ccc(I)cc4F)n(C)c(=O)c(C)c32)cc1NC(C)=O [Example 4-63]
10 to 100 | CCc1ccc(Nc2c3c(=O)n(C4CC4)c(=O)n(-c4ccc(NC(C)=O)cc4)c3c(C)c(=O)n2C)c(F)c1 [Example 4-75]
100 to 1000 | Cc1c(=O)n(C)c(Nc2ccc(Br)cc2)c2c(=O)n(CCO)c(=O)n(-c3ccccc3)c12 [Example 4-85]
100 to 1000 | CC(=O)N(c1cccc(-n2c(=O)n(C3CC3)c(=O)c3c(Nc4ccc(I)cc4F)n(C)c(=O)c(C)c32)c1)S(C)(=O)=O [Example 4-133]
100 to 1000 | CC(=O)Nc1cccc(-n2c(=O)n(CCCO)c(=O)c3c(Nc4ccc(I)cc4F)n(C)c(=O)c(C)c32)c1 [Example 4-135]
100 to 1000 | CC(=O)N(c1cccc(-n2c(=O)n(C3CC3)c(=O)c3c(Nc4ccc(I)cc4F)n(C)c(=O)c(C)c32)c1)S(=O)(=O)N(C)C [Example 4-138]
100 to 1000 | CC(=O)N(C(C)=O)c1cccc(-n2c(=O)n(C3CC3)c(=O)c3c(Nc4ccc(I)cc4F)n(C)c(=O)c(C)c32)c1 [Example 4-140]
